PubChem BioAssay AID1963826 (Molecular Pharmacology Branch, DTP, NCI, 2024)

Test system: 926638-142-R-J1-PDC complex spheroid viability
Test: Anticancer human tumor 926638-142-R-J1-PDC patient-derived endometrial carcinoma cell line growth inhibition [POLQ]
Settings: for IC50: curve of first compound; for viability, T/C: stronger effect = lower value
Summary of the method: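 Growth inhibition in 3D: complex spheroids (tumor PDC, HUVEC, MSC) treated with POLQ inhibitor combinations; where Cmax unknown, highest tested concentration 10 microM, except SN-38 at 1 microM.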
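Also: spheroids exposed to drugs for one week before readout.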
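For viability, T/C in this document: percent viability relative to DMSO vehicle control wells set as 100%.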

CC(=O)O[C@H]1C(=O)[C@@]2(C)[C@H]([C@H](OC(=O)c3ccccc3)[C@]3(O)C[C@H](OC(=O)[C@H](O)[C@@H](NC(=O)c4ccccc4)c4ccccc4)C(C)=C1C3(C)C)[C@]1(OC(C)=O)CO[C@@H]1C[C@@H]2O + Cc1cccc(N(C)C(=O)C2C(O)CCN2c2nc(C)cc(C(F)(F)F)c2C#N)c1
IC50 (second compound 0.0316 µM): 659 nM | IC50 (second compound 0.1 µM): > 3000 nM | IC50 (second compound 0.316 µM): 800 nM | IC50 (second compound 1 µM): 2380 nM | IC50 (second compound 3.16 µM): 1300 nM | IC50 (second compound 10 µM): 817 nM | viability, T/C (second compound 0.0316 µM, first compound 0.00949 µM): 88.1% | viability, T/C (second compound 0.0316 µM, first compound 0.03 µM): 62.9% | viability, T/C (second compound 0.0316 µM, first compound 0.0949 µM): 56.8% | viability, T/C (second compound 0.0316 µM, first compound 0.3 µM): 56.1% | viability, T/C (second compound 0.0316 µM, first compound 0.949 µM): 53.9% | viability, T/C (second compound 0.0316 µM, first compound 3 µM): 41.5% | viability, T/C (second compound 0.1 µM, first compound 0.00949 µM): 87.5% | viability, T/C (second compound 0.1 µM, first compound 0.03 µM): 65.8% | viability, T/C (second compound 0.1 µM, first compound 0.0949 µM): 62.1% | viability, T/C (second compound 0.1 µM, first compound 0.3 µM): 52.4% | viability, T/C (second compound 0.1 µM, first compound 0.949 µM): 58.3% | viability, T/C (second compound 0.1 µM, first compound 3 µM): 51.4% | viability, T/C (second compound 0.316 µM, first compound 0.00949 µM): 79.2% | viability, T/C (second compound 0.316 µM, first compound 0.03 µM): 77% | viability, T/C (second compound 0.316 µM, first compound 0.0949 µM): 66.8% | viability, T/C (second compound 0.316 µM, first compound 0.3 µM): 56.1% | viability, T/C (second compound 0.316 µM, first compound 0.949 µM): 50.5% | viability, T/C (second compound 0.316 µM, first compound 3 µM): 43.2% | viability, T/C (second compound 1 µM, first compound 0.00949 µM): 76.3% | viability, T/C (second compound 1 µM, first compound 0.03 µM): 68.6% | viability, T/C (second compound 1 µM, first compound 0.0949 µM): 61.7% | viability, T/C (second compound 1 µM, first compound 0.3 µM): 57.6% | viability, T/C (second compound 1 µM, first compound 0.949 µM): 67.2% | viability, T/C (second compound 1 µM, first compound 3 µM): 43.1% | viability, T/C (second compound 3.16 µM, first compound 0.00949 µM): 70.6% | viability, T/C (second compound 3.16 µM, first compound 0.03 µM): 61% | viability, T/C (second compound 3.16 µM, first compound 0.0949 µM): 55.4% | viability, T/C (second compound 3.16 µM, first compound 0.3 µM): 55.4% | viability, T/C (second compound 3.16 µM, first compound 0.949 µM): 57% | viability, T/C (second compound 3.16 µM, first compound 3 µM): 43.8% | viability, T/C (second compound 10 µM, first compound 0.00949 µM): 72.8% | viability, T/C (second compound 10 µM, first compound 0.03 µM): 63.2% | viability, T/C (second compound 10 µM, first compound 0.0949 µM): 55.9% | viability, T/C (second compound 10 µM, first compound 0.3 µM): 57.5% | viability, T/C (second compound 10 µM, first compound 0.949 µM): 50.8% | viability, T/C (second compound 10 µM, first compound 3 µM): 44.2%

CC[C@@]1(O)C(=O)OCc2c1cc1n(c2=O)Cc2cc3c(CN(C)C)c(O)ccc3nc2-1 + Cc1cccc(N(C)C(=O)C2C(O)CCN2c2nc(C)cc(C(F)(F)F)c2C#N)c1
IC50 (second compound 0.0316 µM): 68.9 nM | IC50 (second compound 0.1 µM): 74.9 nM | IC50 (second compound 0.316 µM): 73.8 nM | IC50 (second compound 1 µM): > 100 nM | IC50 (second compound 3.16 µM): > 100 nM | IC50 (second compound 10 µM): > 100 nM | viability, T/C (second compound 0.0316 µM, first compound 0.000316 µM): 100% | viability, T/C (second compound 0.0316 µM, first compound 0.001 µM): 91.2% | viability, T/C (second compound 0.0316 µM, first compound 0.00316 µM): 74.6% | viability, T/C (second compound 0.0316 µM, first compound 0.01 µM): 70.4% | viability, T/C (second compound 0.0316 µM, first compound 0.0316 µM): 63.1% | viability, T/C (second compound 0.0316 µM, first compound 0.1 µM): 43.4% | viability, T/C (second compound 0.1 µM, first compound 0.000316 µM): 86.4% | viability, T/C (second compound 0.1 µM, first compound 0.001 µM): 94.6% | viability, T/C (second compound 0.1 µM, first compound 0.00316 µM): 87.9% | viability, T/C (second compound 0.1 µM, first compound 0.01 µM): 76.8% | viability, T/C (second compound 0.1 µM, first compound 0.0316 µM): 64.7% | viability, T/C (second compound 0.1 µM, first compound 0.1 µM): 45.2% | viability, T/C (second compound 0.316 µM, first compound 0.000316 µM): 94.3% | viability, T/C (second compound 0.316 µM, first compound 0.001 µM): 88.9% | viability, T/C (second compound 0.316 µM, first compound 0.00316 µM): 70.4% | viability, T/C (second compound 0.316 µM, first compound 0.01 µM): 76.3% | viability, T/C (second compound 0.316 µM, first compound 0.0316 µM): 57.4% | viability, T/C (second compound 0.316 µM, first compound 0.1 µM): 46.3% | viability, T/C (second compound 1 µM, first compound 0.000316 µM): 93.7% | viability, T/C (second compound 1 µM, first compound 0.001 µM): 74% | viability, T/C (second compound 1 µM, first compound 0.00316 µM): 88.8% | viability, T/C (second compound 1 µM, first compound 0.01 µM): 68.3% | viability, T/C (second compound 1 µM, first compound 0.0316 µM): 68% | viability, T/C (second compound 1 µM, first compound 0.1 µM): 50.4% | viability, T/C (second compound 3.16 µM, first compound 0.000316 µM): 78.3% | viability, T/C (second compound 3.16 µM, first compound 0.001 µM): 99% | viability, T/C (second compound 3.16 µM, first compound 0.00316 µM): 80.7% | viability, T/C (second compound 3.16 µM, first compound 0.01 µM): 63% | viability, T/C (second compound 3.16 µM, first compound 0.0316 µM): 61.2% | viability, T/C (second compound 3.16 µM, first compound 0.1 µM): 47% | viability, T/C (second compound 10 µM, first compound 0.000316 µM): 97.9% | viability, T/C (second compound 10 µM, first compound 0.001 µM): 71.1% | viability, T/C (second compound 10 µM, first compound 0.00316 µM): 75.7% | viability, T/C (second compound 10 µM, first compound 0.01 µM): 68% | viability, T/C (second compound 10 µM, first compound 0.0316 µM): 62.2% | viability, T/C (second compound 10 µM, first compound 0.1 µM): 47.5%
